No end group written: not given here.
Tests used:
TCR 4B = assay: CD69 activation of SKW-3 T cells expressing TCR 4B co-cultured with peptide-pulsed T2 cells; conditions: T2 cells pulsed with 100 μM peptide 3 hours, co-incubated 18 hours, flow cytometry
From the text: Measuring T cell activation in co-culture assays. The four TCRs identified from the colorectal cancer patients that selected peptides from the library were cloned into a MSCV-based vector pMIG II in α-P2A-β configuration using the wildtype signal peptides of the TCR variable genes and full length, unmodified constant regions. The P2A skip sequence allows for 1:1 stoichiometric expression of the TCRs. A MSCV-based vector pMIG II was also used to generate human CD3 in the format of δ-F2A-γ-T2A-ε-P2A-ζ. A packaging vector pCL10A was used to incorporate env, gag, and pol to allow for human mammalian tropism and viral generation. The vectors introduced puromycin and zeocin selectivity into infected cells. […] The viruses were generated using X-tremeGENE 9 DNA transfection reagent (Sigma-Aldrich) in serum-free DMEM. In cell culture, 2% FBS DMEM was used to recover the cells and media was changed at 12 hours. […] The 2 mL virus of TCR and 2 mL virus of human CD3 was used to co-infect 2×10^6 SKW-3 cells with 5 ug/mL polybrene (Millipore) by spinning for 2 hrs at 2500 rpm at 32° C. The virus was removed and replaced with media and cells cultured. The transduced SKW-3 cells were cultured after 2-3 days in 20 ug zeocin and 1 ug puromycin indefinitely to select for TCR and human CD3 co-expression. Cells were then co-stained for TCR (IP26, BioLegend) and human CD3 (UCHT1, BioLegend) and sorted on the SH800 cell sorter (Sony Biotechnology Inc.).
The transduced SKW-3 cells were co-cultured with TAP-deficient T2 cells in a 2:1 ratio with various peptide dilutions. The top 5 synthetic peptides isolated from the yeast-display selections were tested along with predictions determined from the 3 prediction algorithms. Peptides were synthesized to >70% purity (Genscript) (Elim Biopharm) and resuspended in dimethylsulfoxide to 20 mM and stored at −20° C. CD69 (FN50, BioLegend) was measured at 18 hours to detect early T cell activation by flow cytometry using the Accuri C6 (BD Biosciences). SKW-3 T cells were detected by UCHT1 staining and checked for TCR and CD3 expression. T2 cells were checked for HLA-A*02 expression by antibody (BB7.2, BioLegend). Data was analyzed using FlowJo version 10 (FlowJo, LLC) and samples were gated on SKW-3 cells by forward and side scatter and UCHT1+ cells followed by analysis for CD69 expression. Experiments were done in biological triplicate and technical triplicate. P-values were calculated by ordinary one-way ANOVA in Prism and experiments plotted with either standard deviation or standard error of the mean as indicated.
T-cell stimulation assays using SKW-3 cells. Data is analyzed using Flowjo to gate SKW-3 cells and CD3^+ group to identify T cells. T cells are then gated on CD69 expression using the negative control (no peptide). The median MFI expression of CD69 in the CD3^+ group and the percentage of cells expressing CD69 have been analyzed. One-way ordinary ANOVA was determined for both analyses using Prism in comparison to the negative control (no peptide). The 100 μM peptide stimulation is completed in biological and technical triplicate. Only one of the biological triplicates is shown. The peptide titration experiments were done in biological triplicate. All biological triplicates were analyzed collectively.

TCR 2A [1] = assay: TCR 2A tetramer staining of yeast expressing single-chain peptide-HLA-A*02:01; type: binding, human; conditions: 400 nM TCR tetramer
Protocol: (§1) Individual yeast clones isolated from the selections or competent yeast electroporated with reconstructed peptide-HLA constructs identified from the deep sequencing were stained with 400 nM TCR tetramer labeled with SA-647 or SA-647 alone in combination with anti-epitope tag.
Target sequence in this assay (as listed by the source): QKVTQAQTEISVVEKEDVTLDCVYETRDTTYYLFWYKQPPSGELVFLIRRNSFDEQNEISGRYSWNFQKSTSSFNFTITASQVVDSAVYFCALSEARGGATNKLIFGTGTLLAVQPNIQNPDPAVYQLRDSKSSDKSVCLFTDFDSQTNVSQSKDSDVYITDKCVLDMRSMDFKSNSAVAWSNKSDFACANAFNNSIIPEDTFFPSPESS
Target sequence in this assay (as listed by the source): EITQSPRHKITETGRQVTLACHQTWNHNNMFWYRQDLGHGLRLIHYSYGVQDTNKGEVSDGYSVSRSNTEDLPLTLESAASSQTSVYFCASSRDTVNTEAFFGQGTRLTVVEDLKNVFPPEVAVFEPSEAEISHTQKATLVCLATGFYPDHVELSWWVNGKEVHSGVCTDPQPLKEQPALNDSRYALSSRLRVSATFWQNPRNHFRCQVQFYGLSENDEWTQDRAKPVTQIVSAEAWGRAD

[2] = tested on: SKW-3 cells expressing TCR 3B; assay: pHLA tetramer staining of SKW-3 cells expressing TCR 3B; type: binding, human
TCR 3B [3] = assay: TCR 3B tetramer staining of yeast expressing single-chain peptide-HLA-A*02:01; type: binding, human; conditions: 400 nM TCR tetramer
Protocol: as §1
Target sequence in this assay (as listed by the source): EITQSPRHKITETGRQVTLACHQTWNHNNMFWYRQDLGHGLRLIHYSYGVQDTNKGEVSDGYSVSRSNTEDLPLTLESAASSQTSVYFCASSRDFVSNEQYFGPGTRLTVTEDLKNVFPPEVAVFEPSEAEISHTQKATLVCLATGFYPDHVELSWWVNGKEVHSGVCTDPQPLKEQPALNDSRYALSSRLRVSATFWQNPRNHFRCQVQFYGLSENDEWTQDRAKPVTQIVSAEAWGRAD

[4] = tested on: SKW-3 cells expressing TCR2A; assay: pHLA tetramer staining of SKW-3 cells expressing TCR2A; type: binding, human
TCR 2A [5] = assay: CD69 activation of SKW-3 T cells expressing TCR 2A co-cultured with peptide-pulsed T2 cells; conditions: T2 cells pulsed with 100 μM peptide 3 hours, co-incubated 18 hours, flow cytometry
Target sequence in this assay (as listed by the source): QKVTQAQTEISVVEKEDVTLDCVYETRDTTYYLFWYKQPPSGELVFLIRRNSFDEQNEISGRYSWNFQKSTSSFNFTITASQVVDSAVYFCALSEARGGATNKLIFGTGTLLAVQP
Target sequence in this assay (P61769 21-119): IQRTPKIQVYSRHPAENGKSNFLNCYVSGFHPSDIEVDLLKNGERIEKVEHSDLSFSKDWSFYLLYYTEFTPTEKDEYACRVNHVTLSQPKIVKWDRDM
Target sequence in this assay (as listed by the source): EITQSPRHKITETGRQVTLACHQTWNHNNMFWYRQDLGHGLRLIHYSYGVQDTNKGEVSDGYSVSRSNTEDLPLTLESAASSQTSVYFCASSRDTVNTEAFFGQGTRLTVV
From the text: (§2) Measuring T cell activation in co-culture assays. The four TCRs identified from the colorectal cancer patients that selected peptides from the library were cloned into a MSCV-based vector pMIG II in α-P2A-β configuration using the wildtype signal peptides of the TCR variable genes and full length, unmodified constant regions. The P2A skip sequence allows for 1:1 stoichiometric expression of the TCRs. A MSCV-based vector pMIG II was also used to generate human CD3 in the format of δ-F2A-γ-T2A-ε-P2A-ζ. A packaging vector pCL10A was used to incorporate env, gag, and pol to allow for human mammalian tropism and viral generation. […]
(§3) The transduced SKW-3 cells were co-cultured with TAP-deficient T2 cells in a 2:1 ratio with various peptide dilutions. The top 5 synthetic peptides isolated from the yeast-display selections were tested along with predictions determined from the 3 prediction algorithms. […] CD69 (FN50, BioLegend) was measured at 18 hours to detect early T cell activation by flow cytometry using the Accuri C6 (BD Biosciences). SKW-3 T cells were detected by UCHT1 staining and checked for TCR and CD3 expression. […] Data was analyzed using FlowJo version 10 (FlowJo, LLC) and samples were gated on SKW-3 cells by forward and side scatter and UCHT1+ cells followed by analysis for CD69 expression. […]
(§4) T-cell stimulation assays using SKW-3 cells. […] All biological triplicates were analyzed collectively.

NKI2 = assay: IFNγ production by NKI2-transduced peripheral blood lymphocytes with peptide-pulsed JY cells; type: cell-based, human; conditions: 1:1 with peptide-pulsed JY cells, 5-hour incubation, intracellular staining
Protocol: CDK4-specific TCRs clone 10 (NKI1) and 17 (NKI2) were derived from TILs of a melanoma patient that were screened with HLA multimers loaded with predicted neoantigens, essentially as described. The variable parts of both TCRs were cloned into a retroviral vector encoding the murine TCR α and β constant domains. FLYRD18 packaging cells were plated in 10 cm dishes at 1.2×10^6 cells/well. After one day, cells were transfected with 10 μg retroviral vector DNA encoding the CDK4 TCRs using 25 μl X-tremeGENE HP DNA (Sigma-Aldrich). After 48 hrs, retroviral supernatant was isolated and transferred to retronectin-coated 24-well plates and centrifuged for 90 minutes at 430 g. PBMCs were activated and selected with anti-CD3/CD28 beads (ThermoFisher) at a bead-to-cell ratio of 3:1. Forty-eight hours after stimulation, T cells were plated at 0.5×10^6 cells/mL on virus-coated plates. Surface expression of the introduced CDK4 TCRs on transduced T cells was measured using APC labeled CDK4 R>L HLA-A*02:01 tetramers in combination with anti-murine VB TCR-PE labeled antibody (BD Biosciences). Cells were analyzed using a FACSCalibur (Becton Dickinson). JY cells were pulsed with the CDK4 peptide or the predicted peptides at the indicated concentrations for 1 hr at 37° C. and then washed two times. […]

TCR 3B [6] = assay: CD69 activation of SKW-3 T cells expressing TCR 3B co-cultured with peptide-pulsed T2 cells; conditions: T2 cells pulsed with 100 μM peptide 3 hours, co-incubated 18 hours, flow cytometry
Target sequence in this assay (as listed by the source): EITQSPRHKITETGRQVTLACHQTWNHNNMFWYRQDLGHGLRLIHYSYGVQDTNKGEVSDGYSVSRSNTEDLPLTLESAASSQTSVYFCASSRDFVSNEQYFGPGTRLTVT
Target sequence in this assay (P61769 21-119): as the sequence (P61769 21-119) above
From the text: as §2, §3, §4

For KLEQLDWTV, the “CD69 activation of TCR 4B T cell line” value (TCR 4B) was “stimulated”.
VLEEVDWLI was tested, and the “CD69 activation of TCR 4B T cell line” value (TCR 4B) was “stimulated”.
For “MMDFFNAQM-HLA-A*02:01: U2AF2 peptide MMDFFNAQM in complex with HLA-A*02:01, as yeast single-chain trimer or refolded tetramer (not fully specified (C-terminus); also: in complex with HLA-A*02:01 (single-chain trimer or refolded tetramer))”, the “TCR 2A tetramer staining of yeast” value (TCR 2A [1]) was “lack of TCR tetramer staining”, the “pHLA tetramer staining of SKW-3 cells expressing TCR 3B” value [2] was “failed to stain” and the “TCR 3B tetramer staining of yeast” value (TCR 3B [3]) was “lack of TCR tetramer staining”. For the same substance, the “pHLA tetramer staining of SKW-3 cells expressing TCR2A” value [4] was “failed to stain”.
In the case of VLDFQGQL, the “CD69 activation of TCR 2A T cell line” value (TCR 2A [5]) is reported as “able to stimulate the receptor”.
LLEDLDWDV was tested, and the “CD69 activation of TCR 4B T cell line” value (TCR 4B) was “stimulated”.
For TMETIDWKV, the “CD69 activation of TCR 4B T cell line” value (TCR 4B) was “stimulated”.
With TLEELDWCL the “CD69 activation of TCR 4B T cell line” value (TCR 4B) was “stimulated”.
For NMEYMTWDV, the “CD69 activation of TCR 4B T cell line” value (TCR 4B) was “stimulated”.
For NVEYYDIKL, the “CD69 activation of TCR 4B T cell line” value (TCR 4B) was “stimulated”.
In the case of “ALDSRSEHFM [top peptide mimotope selected by NKI2]”, the “IFNγ production by NKI2 transduced T cells” value (NKI2) is reported as “stimulated these cells as potently as the CDK4 neoantigen”.
In the case of MMDFFNAQM, the “CD69 activation of TCR 3B T cell line” value (TCR 3B [6]) is reported as “found to stimulate T cells” and the “CD69 activation of TCR 2A T cell line” value (TCR 2A [5]) is reported as “found to stimulate T cells”.

From patent publication US20250042969A1, “ANTIGEN DISCOVERY FOR T CELL RECEPTORS ISOLATED FROM PATIENT TUMORS RECOGNIZING WILD-TYPE ANTIGENS AND POTENT PEPTIDE MIMOTOPES” (The Board of Trustees of the Leland Stanford Junior …, priority 2017, published 2025)
